From patent US20250339547A1, “MET BCL-XL INHIBITOR ANTIBODY-DRUG CONJUGATES AND METHODS OF USE THEREOF” (Novartis AG, priority 2022, published 2025)

Tested on: H1650 xenografts
Test: In vivo efficacy in combination with osimertinib in Met non amplified NCI-H1650 lung adenocarcinoma human cell model, Example 16
Design: species or system SCID mice
Conditions: osimertinib 15 mg/kg orally on day 1, 2, 3, 4, 7, 8, 9, alone
From the text: Below are the procedures for determining the in vivo therapeutic effect of different Bcl-xL ADCs targeting the Met protein as a single agent or in combination with osimertinib. Their activities are compared to the corresponding naked anti-Met mAbs or Ab G-L42C-P25 (Isotype control/non-targeting ADC) formulated in Phosphate-Buffered Saline (PBS) in a Met non amplified NCI-H1650 lung adenocarcinoma human cell line after intravenous (IV) administration.
NCI-H1650 cells, obtained from ATCC, were cultured in RPMI supplemented with 10% SBS, 1% Penicillin-Streptomycin and 1% HEPES. Cells were resuspended in 50% Matrigel® (Corning®) and 0.1 ml containing 10×10^6 cells were subcutaneously inoculated into the right flank of female SCID mice, provided by JANVIER labs.
When tumors reached the appropriate volume (100-200 mm3), mice were randomized, 6 animals per group, using Easy stat software. […]
Mice body weight was monitored 3 times a week and tumor size measured using electronic calipers. […] The last day with at least half of control animals still present in the study (d25), tumor growth inhibition was calculated using the formula: […]
With DTV (Delta Tumor Volume) at Dx, calculated being TV at Dx−TV at Randomization. […]

In the case of `C=CC(=O)Nc1cc(Nc2nccc(-c3cn(C)c4ccccc34)n2)c(OC)cc1N(C)CCN(C)C` [Osimertinib, osimertinib], the “TGI % (d 25)” value was 86.3%.
